Measured values from US20160166676A1 (priority 2013, published 2016).

Key:
[1] = test system: CTLL-2 cells; format: cell-based
[2] = test system: BMDCs infected with Influenza A virus; format: cell-based

Sequence	proliferation of CTLL-2 cells [1]	effect of mixing the monomer with the dimeric peptide on the suppressive activity of the dimer [1]	interferon response to influenza infection in vitro [2]
DRGWGNGCGLFGKG [FLV IS mono/1]	has no effect		
GLFGAIAGFIENGWEGCGGEKEKEK [IN F#2 monomer]	has no effect	completely removes the suppressive activity of the dimers	
GLFGAIAGFIENGWEGGGGEKEKEK [INF F#2 C17G]			enhances the interferon response
